This is an account of results in PMC6060094, “Structural determinants of the catalytic mechanism of Plasmodium CCT, a key enzyme of malaria lipid biosynthesis” (Scientific Reports, 2018).

Experiment [1] has as its target T1, PfCCT(528–795) (Plasmodium falciparum, UniProt P49587, DEL194-211).
T1 construct: previously described PfCCT(528–795) lacking the lysine-rich Plasmodium specific loop (720–737); His-tag; made in house
The experiment is described as follows: Equilibrium ligand binding by isothermal titration calorimetry (ITC). The following applies: 20 °C. The procedure: (§1) Calorimetric measurements were performed on an ITC 200 titration calorimeter (Malvern) at 20 °C. The protein samples were dialyzed against 20 mM HEPES/NaOH pH 7.5, 100 mM NaCl, including 0.5 mM Tris(2-carboxyethyl)phosphine (TCEP) as reducing agent. CTP and CDPCho were diluted from a concentrated stock into the dialysis buffer with subsequent pH adjustment. Concentration of the titrating nucleotide ligands were determined using molar extinction coefficients 9000 M^−1 cm^−1 at 271 nm for CTP and 5000 M^−1 cm^−1 at 260 nm for CDPCho[16]. In the experimental setup, the cell of the instrument was filled with protein and the syringe with the ligand. The titrations typically included 19 steps of injection with 2 μl of ligand per injection spaced 180 s apart from each other, with the injection syringe rotating at 750 r.p.m. The data were analyzed using MICROCAL ORIGIN software following the directions of the manufacturer. To account for dilution, the invariant integrated heat value of the last 3–5 data points was subtracted from all data points. The one set of independent sites binding model was applied to data for determination of thermodynamic parameters: dissociation constant (Kd), stoichiometry (N), enthalpy (ΔH) and entropy (ΔS). Due to the low apparent affinity, the N value was fixed to a constant value of 1 in CTP titrations to PfCCT(528–795) K663A according to the low c value ITC data analysis protocol[40],[41]. For CTP and CDPCho titrations of PfCCT(528–795) K663A, and CTP titrations of T761A and T762A variants of PfCCT(528-795), mean and SD from two independent experiments are provided, whereas for CDPCho titrations of PfCCT(581–775) and PfCCT(528-795) mean and SD from three independent experiments are provided. For PfCCT(528-795) (Y626F/Q636A), errors of model fit to data of a single ligand binding experiment are given.
In general terms: Isothermal titration calorimetry measures the heat released or taken up as one component is titrated into another.

Another experiment concerns the target PfCCT(528–795) K663A (Plasmodium falciparum, UniProt Q8IEE9, DEL720-737/K663A). Described as above. To be noted: 20 °C. The procedure: as §1
Experiment [2] has as its target T2, PfCCT(528–795) Y626F/Q636A (Plasmodium falciparum, UniProt Q8IEE9, DEL720-737/Q636A/Y626F). The experiment is described as above. To be noted: 20 °C, pH 7.5, single experiment, errors of model fit. As to the method:
as §1

Experiment [3] addresses T3, PfCCT(581–775) (Plasmodium falciparum, UniProt P49587, DEL194-211).
T3 construct: The PfCCT(581–775) construct was obtained using previously described PfCCT(528–795); 6xHis (TEV-cleavable) (N, cleaved yes); made in house; host or cells: E. coli BL21 (DE3)
Described as above. The following applies: 20 °C. As to the method:
as §1

In experiment [4] the target is T3, PfCCT(581–775). The experiment in a line: Saturation Transfer Difference NMR (STD-NMR) ligand binding. The following applies: 50 µM PfCCT(581-775), 283 K. The procedure: In order to provide structural insights into the mechanism of action of PfCCT, we set out to crystallize the constitutively active C-terminal catalytic domain of PfCCT. Several constructs were tested and our attempts were successful only in case of PfCCT(581–775) that corresponds to the exact region visible in the crystal structure of RnCCT (PDB: 3HL4)[20] (Fig. 1a). […] (Table 1 and Supplementary Fig. S1). We further assessed the functionality of PfCCT(581–775) by characterizing its substrate and product binding ability. […] Saturation Transfer Difference Nuclear Magnetic Resonance (STD-NMR) experiments indicated STD signal of CTP, ChoP and CDPCho bound to PfCCT(581–775) at 1 mM, 4 mM and 1 mM concentrations, respectively (Supplementary Fig. S1). This latter result is consistent with previously observed unusually low ChoP affinity of PfCCT[16]. We concluded that PfCCT(581–775) is compatible with substrate and product recognition and may be amenable to structural studies provided that its compromised enzymatic function is taken into account in structure-based interpretations. It is likely that the drop of PfCCT(581–775) enzyme activity is due to the elimination of the C-terminal flanking part as similarly located truncations in the RnCCT catalytic domain also led to severe loss of activity[28],[29]. […]
Kinetic data are fitted with the Michaelis–Menten equation. […] Values of the measured kinetic and thermodynamic parameters and their errors […]
(black) of 50 µM PfCCT(581-775) in 20 mM Tris/HCl pH 7.5, 150 mM NaCl and 2 mM EtSH are shown in presence of c) 1 mM CTP, d) 4 mM ChoP and e) 1 mM CDPCho. […] The 1D 1H STD-NMR spectra were recorded on a Bruker 500 MHz instrument at 283 K with 256 scans and selective saturation of protein resonances at 0.922 ppm using a series of Gaussian shaped pulses (20 ms, 1 ms delay between the pulses). […] All 1D 1H NMR spectra were recorded […]

The target in experiment [5] is T2, PfCCT(528–795) Y626F/Q636A. The experiment is described as follows: Continuous coupled colorimetric enzyme activity assay (PPase/PNP/MESG). The experiment is classed as biochemical. To be noted: ChoP varied 0.5–20 mM, CTP fixed 1 mM; read-out: KM,ChoP. As to the method: (§2) Enzyme activity measurements were performed as described previously, using a continuous coupled colorimetric assay with pyrophosphatase (PPase), purine nucleoside phosphorylase (PNP) auxiliary enzymes and the auxiliary substrate 7-methyl-6-thioguanosine (MESG)[16],[30],[39]. For CTP substrate titrations, CTP concentration was varied between 100 μM and 2 mM while ChoP concentration was kept constant at 5 mM. For ChoP titrations, ChoP concentration was varied between 0.5 mM and 20 mM while CTP concentration was kept constant at 1 mM. Initial velocities were calculated from the first 10% of the progress curves using phosphate calibration as reference. Due to the low activity of PfCCT(581–775) and PfCCT(528–795) T761A, T762A variants, the enzyme was used at 10 μM concentration and the slope of the absorbance change was determined after monitoring the reaction for 20 minutes. For measurements with PfCCT(528–795) K663A the following reagent concentrations were used in the enzyme assay: [PPase] = 0.17 U·ml^−1, [PNP] = 1.25 U·ml^−1, [MESG] = 0.1 mM, [Mg^2+] = 5 mM and [PfCCT(528–795) K663A] = 10 μM, to yield adequate signal-to-noise ratio (S/N > 10). Three independent experiments were performed for CTP and ChoP kinetic titrations of PfCCT(528–795) K663A. Global fit of CTP and ChoP kinetic titrations for each enzyme variant was performed in Origin 8.6 using Michaelis–Menten equation, to yield a single kcat parameter.

A further experiment concerns PfCCT(528–795) T761A. Described as above. Type of experiment: biochemical, Plasmodium falciparum. The following applies: ChoP varied 0.5–20 mM, CTP fixed 1 mM; read-out: KM,ChoP. As to the method: as §2
A further experiment relates to PfCCT(528–795) T762A. The experiment is described as above. The experiment is classed as biochemical, Plasmodium falciparum. To be noted: ChoP varied 0.5–20 mM, CTP fixed 1 mM; read-out: KM,ChoP. The procedure: as §2
Experiment [6] has as its target T1, PfCCT(528–795). Also on record: method as in Nagy et al.[16]. The following applies: ref Nagy et al.[16]; read-out: KM,ChoP; cited from earlier work.

Structures are written as SMILES.

Chain of PfCCT(528–795) K663A (Q8IEE9 528-795, stated change not applied): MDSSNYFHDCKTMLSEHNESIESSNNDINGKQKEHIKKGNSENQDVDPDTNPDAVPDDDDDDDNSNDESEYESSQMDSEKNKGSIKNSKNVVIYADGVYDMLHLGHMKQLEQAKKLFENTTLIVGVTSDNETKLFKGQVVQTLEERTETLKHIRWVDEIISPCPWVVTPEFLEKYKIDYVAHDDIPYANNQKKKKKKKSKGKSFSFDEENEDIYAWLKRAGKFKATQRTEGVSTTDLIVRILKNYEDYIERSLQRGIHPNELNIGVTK
T2 sequence (Q8IEE9 528-795, stated change not applied): as above

The Kd is the concentration at which binding is half-saturated. Consider `C[N+](C)(C)CCOP(=O)(O)OP(=O)([O-])OC[C@H]1O[C@@H](n2ccc(N)nc2=O)[C@H](O)[C@@H]1O` [CDPCho, CDP-choline], for which the ΔGCDP-Cho on PfCCT(528–795) [1] (pH 7.5) was -6.0 ± 0.2 kcal/mol; at PfCCT(528–795) K663A (pH 7.5), -5.0 ± 1.4 kcal/mol; in experiment [2] it was -6.2 ± 0.1 kcal/mol; on PfCCT(581–775) [3] (pH 7.5), -5.8 ± 0.1 kcal/mol. For the same compound, the ΔHCDP-Cho is -16.1 ± 0.1 kcal/mol at PfCCT(528–795) [1] (pH 7.5), -11.4 ± 1.5 kcal/mol on PfCCT(528–795) K663A (pH 7.5), -12.0 ± 0.2 kcal/mol in [2] and -10.5 ± 0.3 kcal/mol on PfCCT(581–775) [3] (pH 7.5). For the same compound, the “−TΔSCDP-Cho” value turned out to be 10.1 ± 0.1 kcal/mol at PfCCT(528–795) [1] (pH 7.5), 6.5 ± 1.6 kcal/mol on PfCCT(528–795) K663A (pH 7.5), 5.8 ± 0.1 kcal/mol in experiment [2] and 4.7 ± 0.4 kcal/mol on PfCCT(581–775) [3] (pH 7.5). Further, the Kd came to 34 ± 1 µM on PfCCT(528–795) [1] (pH 7.5, read-out: Kd,CDP-Cho); 210 ± 60 µM on PfCCT(528–795) K663A (pH 7.5, read-out: Kd,CDP-Cho); 22.2 ± 0.2 µM in experiment [2] (read-out: Kd,CDP-Cho); 47 ± 5 µM on PfCCT(581–775) [3] (pH 7.5, read-out: Kd,CDP-Cho). In addition, at PfCCT(581–775) [4] (ligand 1 mM), the “STD-NMR signal of ligand bound to enzyme” value is on record as “STD signal”.
Usually Km stands for the concentration of substrate that gives half-maximal velocity. In the case of `C[N+](C)(C)CCOP(=O)(O)O` [ChoP, phosphocholine], the Km was 1600 µM in experiment [5], 3700 µM in the experiment with PfCCT(528–795) T761A, 2100 µM with PfCCT(528–795) T762A and 1950 µM at PfCCT(528–795) [6]. Further, at PfCCT(581–775) [4] (ligand 4 mM), the “STD-NMR signal of ligand bound to enzyme” value is reported as “STD signal”.
